Measurements: paper PMC8618442, “Solubility of Cinnarizine in (Transcutol + Water) Mixtures: Determination, Hansen Solubility Parameters, Correlation, and Thermodynamics” (Molecules, 2021)
Converted amounts (≈) assume the structure as drawn. Read-outs that look alike come from different tables or passages of the source.

Experiments:
[1] = Shake-flask equilibrium solubility of CNZ in {TP + water} mixtures and neat solvents (HPLC at 253 nm); format: physicochemical; conditions: 0.1 MPa
Method: Using a Digital Analytical Balance (Mettler Toledo, Greifensee, Switzerland) with a sensitivity of 0.10 mg, all {TP (1) + water (2)} combinations were created on a mass basis. The mass fraction of TP used to make various {TP (1) + water (2)} compositions ranged from 0.10–0.90. Three replicates of each {TP (1) + water (2)} composition were made.
Three repetitions of each experiment were carried out. Inside the Biological Shaker (Julabo, PA, USA), the acquired samples were saturated for three days to achieve equilibrium. After reaching equilibrium, the saturated samples were withdrawn from the shaker and centrifuged at 5000 rpm.

[2] = Apparent thermodynamic analysis of CNZ dissolution (van't Hoff and Gibbs equations); format: physicochemical
Method: At the mean harmonic temperature (Thm), all apparent thermodynamic parameters were examined. The Thm was calculated using the usual formula [27]. […] The van’t Hoff and Gibbs equations were used to conduct this analysis.

[3] = design: method as in PMID 25478230; conditions: cited from earlier work
[4] = design: method as in doi:10.1021/acs.jced.5b00075; conditions: cited from earlier work
[5] = cited from earlier work
[6] = TP + water, w1 = 0.1, Thm = 303.0 K
[7] = TP + water, w1 = 0.2, Thm = 303.0 K
[8] = TP + water, w1 = 0.3, Thm = 303.0 K
[9] = TP + water, w1 = 0.4, Thm = 303.0 K
[10] = TP + water, w1 = 0.5, Thm = 303.0 K
[11] = TP + water, w1 = 0.6, Thm = 303.0 K
[12] = TP + water, w1 = 0.7, Thm = 303.0 K
[13] = TP + water, w1 = 0.8, Thm = 303.0 K
[14] = TP + water, w1 = 0.9, Thm = 303.0 K
[15] = w1 = 0.0 (neat water), Thm = 303.0 K
[16] = w1 = 1.0 (neat TP), Thm = 303.0 K

C(=C\c1ccccc1)/CN1CCN(C(c2ccccc2)c2ccccc2)CC1 [CNZ, 1-benzhydryl-4-[(E)-3-phenylprop-2-enyl]piperazine]
Solubility (xe) in mole fraction ([1]; TP + water, w1 = 0.1, T = 293.2 K): 1.66 × 10^−7 mole fraction | Solubility (xe) in mole fraction ([1]; TP + water, w1 = 0.1, T = 298.2 K): 2.30 × 10^−7 mole fraction | Solubility (xe) in mole fraction ([1]; TP + water, w1 = 0.1, T = 303.2 K): 3.16 × 10^−7 mole fraction | Solubility (xe) in mole fraction ([1]; TP + water, w1 = 0.1, T = 308.2 K): 3.91 × 10^−7 mole fraction | Solubility (xe) in mole fraction ([1]; TP + water, w1 = 0.1, T = 313.2 K): 5.30 × 10^−7 mole fraction | Solubility (xe) in mole fraction ([1]; TP + water, w1 = 0.2, T = 293.2 K): 6.50 × 10^−7 mole fraction | Solubility (xe) in mole fraction ([1]; TP + water, w1 = 0.2, T = 298.2 K): 8.87 × 10^−7 mole fraction | Solubility (xe) in mole fraction ([1]; TP + water, w1 = 0.2, T = 303.2 K): 1.23 × 10^−6 mole fraction | Solubility (xe) in mole fraction ([1]; TP + water, w1 = 0.2, T = 308.2 K): 1.51 × 10^−6 mole fraction | Solubility (xe) in mole fraction ([1]; TP + water, w1 = 0.2, T = 313.2 K): 1.95 × 10^−6 mole fraction | Solubility (xe) in mole fraction ([1]; TP + water, w1 = 0.3, T = 293.2 K): 2.64 × 10^−6 mole fraction | Solubility (xe) in mole fraction ([1]; TP + water, w1 = 0.3, T = 298.2 K): 3.50 × 10^−6 mole fraction | Solubility (xe) in mole fraction ([1]; TP + water, w1 = 0.3, T = 303.2 K): 4.49 × 10^−6 mole fraction | Solubility (xe) in mole fraction ([1]; TP + water, w1 = 0.3, T = 308.2 K): 5.35 × 10^−6 mole fraction | Solubility (xe) in mole fraction ([1]; TP + water, w1 = 0.3, T = 313.2 K): 7.00 × 10^−6 mole fraction | Solubility (xe) in mole fraction ([1]; TP + water, w1 = 0.4, T = 293.2 K): 1.12 × 10^−5 mole fraction | Solubility (xe) in mole fraction ([1]; TP + water, w1 = 0.4, T = 298.2 K): 1.42 × 10^−5 mole fraction | Solubility (xe) in mole fraction ([1]; TP + water, w1 = 0.4, T = 303.2 K): 1.72 × 10^−5 mole fraction | Solubility (xe) in mole fraction ([1]; TP + water, w1 = 0.4, T = 308.2 K): 2.09 × 10^−5 mole fraction | Solubility (xe) in mole fraction ([1]; TP + water, w1 = 0.4, T = 313.2 K): 2.62 × 10^−5 mole fraction | Solubility (xe) in mole fraction ([1]; TP + water, w1 = 0.5, T = 293.2 K): 4.24 × 10^−5 mole fraction | Solubility (xe) in mole fraction ([1]; TP + water, w1 = 0.5, T = 298.2 K): 5.26 × 10^−5 mole fraction | Solubility (xe) in mole fraction ([1]; TP + water, w1 = 0.5, T = 303.2 K): 6.34 × 10^−5 mole fraction | Solubility (xe) in mole fraction ([1]; TP + water, w1 = 0.5, T = 308.2 K): 7.33 × 10^−5 mole fraction | Solubility (xe) in mole fraction ([1]; TP + water, w1 = 0.5, T = 313.2 K): 9.22 × 10^−5 mole fraction | Solubility (xe) in mole fraction ([1]; TP + water, w1 = 0.6, T = 293.2 K): 1.73 × 10^−4 mole fraction | Solubility (xe) in mole fraction ([1]; TP + water, w1 = 0.6, T = 298.2 K): 2.10 × 10^−4 mole fraction | Solubility (xe) in mole fraction ([1]; TP + water, w1 = 0.6, T = 303.2 K): 2.44 × 10^−4 mole fraction | Solubility (xe) in mole fraction ([1]; TP + water, w1 = 0.6, T = 308.2 K): 2.77 × 10^−4 mole fraction | Solubility (xe) in mole fraction ([1]; TP + water, w1 = 0.6, T = 313.2 K): 3.36 × 10^−4 mole fraction | Solubility (xe) in mole fraction ([1]; TP + water, w1 = 0.7, T = 293.2 K): 6.89 × 10^−4 mole fraction | Solubility (xe) in mole fraction ([1]; TP + water, w1 = 0.7, T = 298.2 K): 8.00 × 10^−4 mole fraction | Solubility (xe) in mole fraction ([1]; TP + water, w1 = 0.7, T = 303.2 K): 9.22 × 10^−4 mole fraction | Solubility (xe) in mole fraction ([1]; TP + water, w1 = 0.7, T = 308.2 K): 1.05 × 10^−3 mole fraction | Solubility (xe) in mole fraction ([1]; TP + water, w1 = 0.7, T = 313.2 K): 1.23 × 10^−3 mole fraction | Solubility (xe) in mole fraction ([1]; TP + water, w1 = 0.8, T = 293.2 K): 2.81 × 10^−3 mole fraction | Solubility (xe) in mole fraction ([1]; TP + water, w1 = 0.8, T = 298.2 K): 3.17 × 10^−3 mole fraction | Solubility (xe) in mole fraction ([1]; TP + water, w1 = 0.8, T = 303.2 K): 3.53 × 10^−3 mole fraction | Solubility (xe) in mole fraction ([1]; TP + water, w1 = 0.8, T = 308.2 K): 3.90 × 10^−3 mole fraction | Solubility (xe) in mole fraction ([1]; TP + water, w1 = 0.8, T = 313.2 K): 4.43 × 10^−3 mole fraction | Solubility (xe) in mole fraction ([1]; TP + water, w1 = 0.9, T = 293.2 K): 1.12 × 10^−2 mole fraction | Solubility (xe) in mole fraction ([1]; TP + water, w1 = 0.9, T = 298.2 K): 1.25 × 10^−2 mole fraction | Solubility (xe) in mole fraction ([1]; TP + water, w1 = 0.9, T = 303.2 K): 1.38 × 10^−2 mole fraction | Solubility (xe) in mole fraction ([1]; TP + water, w1 = 0.9, T = 308.2 K): 1.48 × 10^−2 mole fraction | Solubility (xe) in mole fraction ([1]; TP + water, w1 = 0.9, T = 313.2 K): 1.62 × 10^−2 mole fraction | Solubility (xe) in mole fraction ([1]; w1 (TP mass fraction) = 0.0 (neat water), T = 293.2 K): 3.91 × 10^−8 mole fraction | Solubility (xe) in mole fraction ([1]; w1 = 0.0 (neat water), T = 298.2 K): 5.67 × 10^−8 mole fraction | Solubility (xe) in mole fraction ([1]; w1 = 0.0 (neat water), T = 303.2 K): 7.82 × 10^−8 mole fraction | Solubility (xe) in mole fraction ([1]; w1 = 0.0 (neat water), T = 308.2 K): 9.78 × 10^−8 mole fraction | Solubility (xe) in mole fraction ([1]; w1 = 0.0 (neat water), T = 313.2 K): 1.42 × 10^−7 mole fraction | Solubility (xe) in mole fraction ([1]; w1 = 1.0 (neat TP), T = 293.2 K): 4.52 × 10^−2 mole fraction | Solubility (xe) in mole fraction ([1]; w1 = 1.0 (neat TP), T = 298.2 K): 4.78 × 10^−2 mole fraction | Solubility (xe) in mole fraction ([1]; w1 = 1.0 (neat TP), T = 303.2 K): 5.08 × 10^−2 mole fraction | Solubility (xe) in mole fraction ([1]; w1 = 1.0 (neat TP), T = 308.2 K): 5.44 × 10^−2 mole fraction | Solubility (xe) in mole fraction ([1]; w1 = 1.0 (neat TP), T = 313.2 K): 5.83 × 10^−2 mole fraction | Apparent standard Gibbs energy (ΔsolnG°) [2, 6]: 37.82 kJ/mol | Apparent standard enthalpy (ΔsolnH°) [2, 6]: 43.56 kJ/mol | Apparent standard entropy (ΔsolnS°) [2, 6]: 18.92 J mol^−1 K^−1 | Apparent standard Gibbs energy (ΔsolnG°) [2, 7]: 34.43 kJ/mol | Apparent standard enthalpy (ΔsolnH°) [2, 7]: 41.69 kJ/mol | Apparent standard entropy (ΔsolnS°) [2, 7]: 23.94 J mol^−1 K^−1 | Apparent standard Gibbs energy (ΔsolnG°) [2, 8]: 31.10 kJ/mol | Apparent standard enthalpy (ΔsolnH°) [2, 8]: 36.24 kJ/mol | Apparent standard entropy (ΔsolnS°) [2, 8]: 16.96 J mol^−1 K^−1 | Apparent standard Gibbs energy (ΔsolnG°) [2, 9]: 27.64 kJ/mol | Apparent standard enthalpy (ΔsolnH°) [2, 9]: 31.78 kJ/mol | Apparent standard entropy (ΔsolnS°) [2, 9]: 13.68 J mol^−1 K^−1 | Apparent standard Gibbs energy (ΔsolnG°) [2, 10]: 24.38 kJ/mol | Apparent standard enthalpy (ΔsolnH°) [2, 10]: 28.78 kJ/mol | Apparent standard entropy (ΔsolnS°) [2, 10]: 14.50 J mol^−1 K^−1 | Apparent standard Gibbs energy (ΔsolnG°) [2, 11]: 20.98 kJ/mol | Apparent standard enthalpy (ΔsolnH°) [2, 11]: 24.49 kJ/mol | Apparent standard entropy (ΔsolnS°) [2, 11]: 11.57 J mol^−1 K^−1 | Apparent standard Gibbs energy (ΔsolnG°) [2, 12]: 17.61 kJ/mol | Apparent standard enthalpy (ΔsolnH°) [2, 12]: 21.80 kJ/mol | Apparent standard entropy (ΔsolnS°) [2, 12]: 13.82 J mol^−1 K^−1 | Apparent standard Gibbs energy (ΔsolnG°) [2, 13]: 14.23 kJ/mol | Apparent standard enthalpy (ΔsolnH°) [2, 13]: 17.09 kJ/mol | Apparent standard entropy (ΔsolnS°) [2, 13]: 9.464 J mol^−1 K^−1 | Apparent standard Gibbs energy (ΔsolnG°) [2, 14]: 10.83 kJ/mol | Apparent standard enthalpy (ΔsolnH°) [2, 14]: 14.08 kJ/mol | Apparent standard entropy (ΔsolnS°) [2, 14]: 10.72 J mol^−1 K^−1 | Apparent standard Gibbs energy (ΔsolnG°) [2, 15]: 41.32 kJ/mol | Apparent standard enthalpy (ΔsolnH°) [2, 15]: 47.65 kJ/mol | Apparent standard Gibbs energy (ΔsolnG°) [2, 16]: 7.492 kJ/mol | Apparent standard enthalpy (ΔsolnH°) [2, 16]: 9.719 kJ/mol | Apparent standard entropy (ΔsolnS°) [2, 16]: 7.346 J mol^−1 K^−1 | Solubility in aqueous buffer ([3]; pH = 2.0, 310.2 K): 0.29 mg/mL (≈ 787 µM) | Solubility in aqueous buffer ([3]; pH = 5.0, 310.2 K): 0.017 mg/mL (≈ 46.1 µM) | Solubility in aqueous buffer ([3]; pH = 6.5, 310.2 K): 0.002 mg/mL (≈ 5.43 µM) | Mole fraction solubility in water ([4]; 298.3 K): 6.63 × 10^−8 mole fraction | Mole fraction solubility in water ([4]; 303.0 K): 7.71 × 10^−8 mole fraction | Mole fraction solubility in water ([4]; 307.8 K): 9.35 × 10^−8 mole fraction | Solubility in water [5]: practically insoluble in water
